In PubChem BioAssay AID2060497 (Molecular Pharmacology Branch, DTP, NCI, 2025):
Blank lines part the entries; values can stand above or below the compound they belong to.

System: 317291-083-R-J1-PDC complex spheroids, viability
Assay: Anticancer human tumor 317291-083-R-J1-PDC patient-derived soft tissue sarcoma cell line growth inhibition [GQUAD]
Conditions: for IC50: curve of first compound; for viability, T/C: stronger effect = lower value
In short: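 Viability of tumor cells grown as complex spheroids with endothelial and stromal cells, exposed to drug combinations. Top concentration at or near clinical Cmax (else 10 microM), diluted in half-log increments.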

[1] = second compound 0.0316 µM, first compound 0.0316 µM
[2] = second compound 0.0316 µM, first compound 0.1 µM
[3] = second compound 0.0316 µM, first compound 0.316 µM
[4] = second compound 0.0316 µM, first compound 1 µM
[5] = second compound 0.0316 µM, first compound 3.16 µM
[6] = second compound 0.0316 µM, first compound 10 µM
[7] = second compound 0.1 µM, first compound 0.0316 µM
[8] = second compound 0.1 µM, first compound 0.1 µM
[9] = second compound 0.1 µM, first compound 0.316 µM
[10] = second compound 0.1 µM, first compound 1 µM
[11] = second compound 0.1 µM, first compound 3.16 µM
[12] = second compound 0.1 µM, first compound 10 µM
[13] = second compound 0.316 µM, first compound 0.0316 µM
[14] = second compound 0.316 µM, first compound 0.1 µM
[15] = second compound 0.316 µM, first compound 0.316 µM
[16] = second compound 0.316 µM, first compound 1 µM
[17] = second compound 0.316 µM, first compound 3.16 µM
[18] = second compound 0.316 µM, first compound 10 µM
[19] = second compound 1 µM, first compound 0.0316 µM
[20] = second compound 1 µM, first compound 0.1 µM
[21] = second compound 1 µM, first compound 0.316 µM
[22] = second compound 1 µM, first compound 1 µM
[23] = second compound 1 µM, first compound 3.16 µM
[24] = second compound 1 µM, first compound 10 µM
[25] = second compound 3.16 µM, first compound 0.0316 µM
[26] = second compound 3.16 µM, first compound 0.1 µM
[27] = second compound 3.16 µM, first compound 0.316 µM
[28] = second compound 3.16 µM, first compound 1 µM
[29] = second compound 3.16 µM, first compound 3.16 µM
[30] = second compound 3.16 µM, first compound 10 µM
[31] = second compound 10 µM, first compound 0.0316 µM
[32] = second compound 10 µM, first compound 0.1 µM
[33] = second compound 10 µM, first compound 0.316 µM
[34] = second compound 10 µM, first compound 1 µM
[35] = second compound 10 µM, first compound 3.16 µM
[36] = second compound 10 µM, first compound 10 µM
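Note: spheroids exposed to compounds for one week before readout.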
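Throughout, for viability, T/C: percent viability relative to DMSO vehicle wells taken as 100%.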

IC50 (second compound 0.0316 µM): 171 nM | IC50 (second compound 0.1 µM): 64.7 nM | IC50 (second compound 0.316 µM): < 31.6 nM | IC50 (second compound 1 µM): < 31.6 nM | IC50 (second compound 3.16 µM): < 31.6 nM | IC50 (second compound 10 µM): < 31.6 nM
SMILES: C=CCn1c(=O)c2cnc(Nc3ccc(N4CCN(C)CC4)cc3)nc2n1-c1cccc(C(C)(C)O)n1 + Cc1cnc(CNC(=O)c2c(=O)c3ccc(N4CCCN(C)CC4)nc3n3c2sc2ccccc23)cn1
viability, T/C [1]: 79.7% | viability, T/C [2]: 65.5% | viability, T/C [3]: 31.2% | viability, T/C [4]: 28.8% | viability, T/C [5]: 17.8% | viability, T/C [6]: 17.2% | viability, T/C [7]: 57.3% | viability, T/C [8]: 45.4% | viability, T/C [9]: 30.3% | viability, T/C [10]: 19.9% | viability, T/C [11]: 14.6% | viability, T/C [12]: 14.8% | viability, T/C [13]: 43.2% | viability, T/C [14]: 27.5% | viability, T/C [15]: 22.6% | viability, T/C [16]: 20.9% | viability, T/C [17]: 12% | viability, T/C [18]: 17.6% | viability, T/C [19]: 27.7% | viability, T/C [20]: 30.3% | viability, T/C [21]: 24.6% | viability, T/C [22]: 15.1% | viability, T/C [23]: 8.69% | viability, T/C [24]: 8.16% | viability, T/C [25]: 15.6% | viability, T/C [26]: 13% | viability, T/C [27]: 19.1% | viability, T/C [28]: 4.5% | viability, T/C [29]: 4.07% | viability, T/C [30]: 2.45% | viability, T/C [31]: 0.13% | viability, T/C [32]: 0.27% | viability, T/C [33]: 0.18% | viability, T/C [34]: 1.89% | viability, T/C [35]: 0.2% | viability, T/C [36]: 0.61%

IC50 (second compound 0.0316 µM): > 10000 nM | IC50 (second compound 0.1 µM): 138 nM | IC50 (second compound 0.316 µM): 373 nM | IC50 (second compound 1 µM): < 31.6 nM | IC50 (second compound 3.16 µM): < 31.6 nM | IC50 (second compound 10 µM): < 31.6 nM
SMILES: COc1ncnc(C2CC2)c1-c1ncc2cnn(Cc3ccc(-c4nc(C(F)(F)F)cn4C(C)C)cc3)c2n1 + Cc1cnc(CNC(=O)c2c(=O)c3ccc(N4CCCN(C)CC4)nc3n3c2sc2ccccc23)cn1
viability, T/C [1]: 78.3% | viability, T/C [2]: 76.8% | viability, T/C [3]: 71.6% | viability, T/C [4]: 72.2% | viability, T/C [5]: 67% | viability, T/C [6]: 54.1% | viability, T/C [7]: 59.5% | viability, T/C [8]: 51.1% | viability, T/C [9]: 47.3% | viability, T/C [10]: 39.3% | viability, T/C [11]: 56.1% | viability, T/C [12]: 53% | viability, T/C [13]: 46.6% | viability, T/C [14]: 48.1% | viability, T/C [15]: 63.6% | viability, T/C [16]: 31.2% | viability, T/C [17]: 37.4% | viability, T/C [18]: 32% | viability, T/C [19]: 31.3% | viability, T/C [20]: 36.8% | viability, T/C [21]: 44.1% | viability, T/C [22]: 30.5% | viability, T/C [23]: 32.3% | viability, T/C [24]: 25.8% | viability, T/C [25]: 20.5% | viability, T/C [26]: 13.6% | viability, T/C [27]: 30% | viability, T/C [28]: 15.5% | viability, T/C [29]: 16.2% | viability, T/C [30]: 21.2% | viability, T/C [31]: 0.63% | viability, T/C [32]: 0.19% | viability, T/C [33]: 0.22% | viability, T/C [34]: 0.19% | viability, T/C [35]: 0.26% | viability, T/C [36]: 0.24%

IC50 (second compound 0.0316 µM): 54.2 nM | IC50 (second compound 0.1 µM): 20.1 nM | IC50 (second compound 0.316 µM): 1.57 nM | IC50 (second compound 1 µM): < 0.999 nM | IC50 (second compound 3.16 µM): < 0.999 nM | IC50 (second compound 10 µM): < 0.999 nM
SMILES: Cc1[nH]c2ccccc2c1CCNCc1ccc(/C=C/C(=O)NO)cc1 + Cc1cnc(CNC(=O)c2c(=O)c3ccc(N4CCCN(C)CC4)nc3n3c2sc2ccccc23)cn1
viability, T/C (second compound 0.0316 µM, first compound 0.000999 µM): 101% | viability, T/C (second compound 0.0316 µM, first compound 0.00316 µM): 80.9% | viability, T/C (second compound 0.0316 µM, first compound 0.00999 µM): 103% | viability, T/C [1]: 80% | viability, T/C (second compound 0.0316 µM, first compound 0.0999 µM): 15.5% | viability, T/C [3]: 0.98% | viability, T/C (second compound 0.1 µM, first compound 0.000999 µM): 67.3% | viability, T/C (second compound 0.1 µM, first compound 0.00316 µM): 54.2% | viability, T/C (second compound 0.1 µM, first compound 0.00999 µM): 55.2% | viability, T/C [7]: 46.1% | viability, T/C (second compound 0.1 µM, first compound 0.0999 µM): 12.2% | viability, T/C [9]: 0.49% | viability, T/C (second compound 0.316 µM, first compound 0.000999 µM): 59% | viability, T/C (second compound 0.316 µM, first compound 0.00316 µM): 35.4% | viability, T/C (second compound 0.316 µM, first compound 0.00999 µM): 31.4% | viability, T/C [13]: 25.5% | viability, T/C (second compound 0.316 µM, first compound 0.0999 µM): 14.5% | viability, T/C [15]: 0.46% | viability, T/C (second compound 1 µM, first compound 0.000999 µM): 34.4% | viability, T/C (second compound 1 µM, first compound 0.00316 µM): 20.5% | viability, T/C (second compound 1 µM, first compound 0.00999 µM): 34.5% | viability, T/C [19]: 26% | viability, T/C (second compound 1 µM, first compound 0.0999 µM): 7.38% | viability, T/C [21]: 0.1% | viability, T/C (second compound 3.16 µM, first compound 0.000999 µM): 27.3% | viability, T/C (second compound 3.16 µM, first compound 0.00316 µM): 41.7% | viability, T/C (second compound 3.16 µM, first compound 0.00999 µM): 50% | viability, T/C [25]: 0.4% | viability, T/C (second compound 3.16 µM, first compound 0.0999 µM): 0.16% | viability, T/C [27]: 0.22% | viability, T/C (second compound 10 µM, first compound 0.000999 µM): 3.89% | viability, T/C (second compound 10 µM, first compound 0.00316 µM): 11.2% | viability, T/C (second compound 10 µM, first compound 0.00999 µM): 0.33% | viability, T/C [31]: 1.81% | viability, T/C (second compound 10 µM, first compound 0.0999 µM): 0.47% | viability, T/C [33]: 0.44%
